Experimental data taken from patent US4001272A, “Herbicidal 2-fluoro-4-halo-phenyl-4,5,6,7-tetrahydro-2H-isoindole-1,3-diones” (E. I. Du Pont de Nemours and Company, priority 1974, dated 1977).

Legend:
Format in all cases: in vivo
foxtails (Setaria spp.) = experiment: Test B: overall spray in carrot field after weed emergence, percent control of foxtails; details: six weeks after treatment, 0.1% Tween 20
Description: (§1) Test B involved a field sown to carrots and in which the following weed species emerged naturally: crabgrass (Digitaria sanquinalis), foxtails (Setaria spp.), barnyardgrass (Echinochloa crusgalli), pigweed (Amaranthus spp.), ragweed (Ambrosia artemisiifolia), velvetleaf (Abutilon theophrasti), smartweed (Polygonum spp.) and lambsquarters (Chenopodium album). Sixteen days after sowing, when all species of weeds had emerged, the plants were sprayed overall with a 50% wettable powder formulation of 2-(4-chloro-2-fluorophenyl)4,5,6,7-tetrahydro-2H-isoindole-1,3dione (Treatment I) in the form of an aqueous suspension, at rates of 0.5, 1.0, 2.0 and 4.0 kg/ha, and with 2-(4-chlorophenyl)-4,5,6,7-tetrahydro-2H-isoindole-1,3-dione (Treatment II) in the same form and at the same rates. The spray volume was 425 l/ha. The surfactant Tween 20* was added to all treatments in a concentration of 0.1% by weight. Six weeks after treatment, visual observations were made of percent weed control obtained and, for carrots, crop response.
(§2) *Tween 20 -- A trademark of ICI of America which is the reaction product of sorbitan monolaurate with an average of 20 moles of ethylene oxide.

rice, variety CSM-3 = experiment: Test C: crop response of rice CSM-3; details: 29 days, 0 = no injury to 10 = complete kill; for Crop Response, Rice CSM-3, 1 cm: planting depth 1 cm; for Crop Response, Rice CSM-3, 2 cm: planting depth 2 cm; for Crop Response, Rice CSM-3, T: transplanted
Description: (§3) In test A, soybeans, peanuts, lima beans, green beans and squash were planted in a field infested with the following weed seeds: crabgrass (Digitaria sanquinalis), foxtails (Setaria spp.), barnyardgrass (Echinochloa crusgalli), pigweed (Amaranthus spp.), ragweed (Ambrosia artemisiifolia), velvetleaf (Abutilon theophrasti), purslane (Portulaca oleracea) and flower-of-an-hour (Hibiscus trionum). […] The plots were rated for percent weed control and crop response seven weeks after treatment. Crop response was expressed on a scale of 0 = no injury to 10 = complete kill.
(§4) Test C concerned preemergence weed control in rice. The field selected contained seeds of the following weed species: crabgrass (Digitaria sanquinalis), foxtail (Setaria spp.), barnyardgrass (Echinochloa crusgalli), pigweed (Amaranthus spp.), ragweed (Ambrosia artemisiifolia), velvetleaf (Abutilon theophrasti), purslane (Portulaca oleracea) and flower-of-an-hour (Hibiscus trionum). Two varieties of rice, CSM-3 and Nato, were planted at depths of both 1 and 2 cm. In addition, rice seedlings of both varieties were transplanted into the field to be treated. […] The test chemicals had been formulated as 50% wettable powders. Overall spray volume was 540 l/ha.

rice, variety Nato = experiment: Test C: crop response of rice Nato; details: 29 days, 0 = no injury to 10 = complete kill; for Crop Response, Rice Nato, 1 cm: planting depth 1 cm; for Crop Response, Rice Nato, 2 cm: planting depth 2 cm; for Crop Response, Rice Nato, T: transplanted
Description: as §3, §4

[1] = system: barnyardgrass (Echinochloa crusgalli); experiment: Test B: overall spray in carrot field after weed emergence, percent control of barnyardgrass; details: six weeks after treatment, 0.1% Tween 20
Description: as §1, §2

[2] = system: crabgrass (Digitaria sanquinalis); experiment: Test B: overall spray in carrot field after weed emergence, percent control of crabgrass; details: six weeks after treatment, 0.1% Tween 20
Description: as §1, §2

[3] = system: velvetleaf (Abutilon theophrasti); experiment: Test C: preemergence weed control in rice, velvetleaf; details: 29 days after treatment
Description: (§5) In test A, soybeans, peanuts, lima beans, green beans and squash were planted in a field infested with the following weed seeds: crabgrass (Digitaria sanquinalis), foxtails (Setaria spp.), barnyardgrass (Echinochloa crusgalli), pigweed (Amaranthus spp.), ragweed (Ambrosia artemisiifolia), velvetleaf (Abutilon theophrasti), purslane (Portulaca oleracea) and flower-of-an-hour (Hibiscus trionum). A 50% wettable powder formulation of 2-(4-chloro-2-fluorophenyl)-4,5,6,7-tetrahydro-2H-isoindole-1,3-dione was applied in the form of an aqueous suspension at rates of 0.125, 0.25, 0.5 and 1.0 kg/ha, each treatment replicated twice. The plots were rated for percent weed control and crop response seven weeks after treatment. Crop response was expressed on a scale of 0 = no injury to 10 = complete kill.
(§6) Test C concerned preemergence weed control in rice. The field selected contained seeds of the following weed species: crabgrass (Digitaria sanquinalis), foxtail (Setaria spp.), barnyardgrass (Echinochloa crusgalli), pigweed (Amaranthus spp.), ragweed (Ambrosia artemisiifolia), velvetleaf (Abutilon theophrasti), purslane (Portulaca oleracea) and flower-of-an-hour (Hibiscus trionum). Two varieties of rice, CSM-3 and Nato, were planted at depths of both 1 and 2 cm. In addition, rice seedlings of both varieties were transplanted into the field to be treated. Immediately thereafter, the plot was treated with an aqueous suspension of 2-(4-chloro-2-fluorophenyl)-4,5,6,7-tetrahydro-2H-isoindole-1,3-dione (Treatment I) at rates of 0.125 and 0.25 kg/ha, and an aqueous suspension of 2-(4-chlorophenyl)-4,5,6,7-tetrahydro-2H-isoindole-1,3dione (Treatment II) at rates of 0.25, 0.50, 1.00 and 2.00 kg/ha. The test chemicals had been formulated as 50% wettable powders. Overall spray volume was 540 l/ha. Ratings of percent weed control obtained and crop response were made 29 days after treatment, as described for test A. The ratings are summarized in the following Table III.

[4] = system: lambsquarters (Chenopodium album); experiment: Test B: overall spray in carrot field after weed emergence, percent control of lambsquarters; details: six weeks after treatment, 0.1% Tween 20
Description: as §1, §2

[5] = system: crabgrass (Digitaria sanquinalis); experiment: Test C: preemergence weed control in rice, crabgrass; details: 29 days after treatment
Description: as §5, §6

foxtail (Setaria spp.) = experiment: Test C: preemergence weed control in rice, foxtail; details: 29 days after treatment
Description: as §5, §6

[6] = system: pigweed (Amaranthus spp.); experiment: Test B: overall spray in carrot field after weed emergence, percent control of pigweed; details: six weeks after treatment, 0.1% Tween 20
Description: as §1, §2

[7] = system: smartweed (Polygonum spp.); experiment: Test B: overall spray in carrot field after weed emergence, percent control of smartweed; details: six weeks after treatment, 0.1% Tween 20
Description: as §1, §2

O=C1C2=C(CCCC2)C(=O)N1c1ccc(Cl)cc1F [Treatment I, 2-(4-chloro-2-fluorophenyl)-4,5,6,7-tetrahydro-2H-isoindole-1,3-dione]
% Control, Foxtails (foxtails (Setaria spp.); 0.5 kg/ha): 70% | % Control, Foxtails (foxtails (Setaria spp.); 1.0 kg/ha): 90% | % Control, Foxtails (foxtails (Setaria spp.); 2.0 kg/ha): 94% | % Control, Foxtails (foxtails (Setaria spp.); 4.0 kg/ha): > 99% | Crop Response, Rice CSM-3, 1 cm (rice, variety CSM-3; 0.125 kg/ha): 3 | Crop Response, Rice CSM-3, 2 cm (rice, variety CSM-3; 0.125 kg/ha): 0 | Crop Response, Rice CSM-3, T (rice, variety CSM-3; 0.125 kg/ha): 0 | Crop Response, Rice CSM-3, 1 cm (rice, variety CSM-3; 0.25 kg/ha): 5 | Crop Response, Rice CSM-3, 2 cm (rice, variety CSM-3; 0.25 kg/ha): 1 | Crop Response, Rice CSM-3, T (rice, variety CSM-3; 0.25 kg/ha): 0 | Crop Response, Rice Nato, 1 cm (rice, variety Nato; 0.125 kg/ha): 3 | Crop Response, Rice Nato, 2 cm (rice, variety Nato; 0.125 kg/ha): 1 | Crop Response, Rice Nato, T (rice, variety Nato; 0.125 kg/ha): 0 | Crop Response, Rice Nato, 1 cm (rice, variety Nato; 0.25 kg/ha): 6 | Crop Response, Rice Nato, 2 cm (rice, variety Nato; 0.25 kg/ha): 2 | Crop Response, Rice Nato, T (rice, variety Nato; 0.25 kg/ha): 0 | % Control, Barnyardgrass ([1]; 0.5 kg/ha): 65% | % Control, Barnyardgrass ([1]; 1.0 kg/ha): 90% | % Control, Barnyardgrass ([1]; 2.0 kg/ha): 94% | % Control, Barnyardgrass ([1]; 4.0 kg/ha): > 99% | % Control, Crabgrass ([2]; 0.5 kg/ha): 60% | % Control, Crabgrass ([2]; 1.0 kg/ha): 85% | % Control, Crabgrass ([2]; 2.0 kg/ha): 90% | % Control, Crabgrass ([2]; 4.0 kg/ha): 100% | % Control, Velvetleaf ([3]; 0.125 kg/ha): 100% | % Control, Velvetleaf ([3]; 0.25 kg/ha): 100% | % Control, Lambsquarters ([4]; 0.5 kg/ha): 100% | % Control, Lambsquarters ([4]; 1.0 kg/ha): 100% | % Control, Lambsquarters ([4]; 2.0 kg/ha): 100% | % Control, Lambsquarters ([4]; 4.0 kg/ha): 100% | % Control, Crabgrass ([5]; 0.125 kg/ha): 96% | % Control, Crabgrass ([5]; 0.25 kg/ha): 100% | % Control, Foxtail (foxtail (Setaria spp.); 0.125 kg/ha): 96% | % Control, Foxtail (foxtail (Setaria spp.); 0.25 kg/ha): 100% | % Control, Pigweed ([6]; 0.5 kg/ha): 92% | % Control, Pigweed ([6]; 1.0 kg/ha): 99% | % Control, Pigweed ([6]; 2.0 kg/ha): 100% | % Control, Pigweed ([6]; 4.0 kg/ha): 100% | % Control, Smartweed ([7]; 0.5 kg/ha): > 99% | % Control, Smartweed ([7]; 1.0 kg/ha): 100% | % Control, Smartweed ([7]; 2.0 kg/ha): 100% | % Control, Smartweed ([7]; 4.0 kg/ha): 100%

O=C1C2=C(CCCC2)C(=O)N1c1ccc(Cl)cc1 [Treatment II, 2-(4-chlorophenyl)-4,5,6,7-tetrahydro-2H-isoindole-1,3-dione]
% Control, Foxtails (foxtails (Setaria spp.); 0.5 kg/ha): 0% | % Control, Foxtails (foxtails (Setaria spp.); 1.0 kg/ha): 20% | % Control, Foxtails (foxtails (Setaria spp.); 2.0 kg/ha): 40% | % Control, Foxtails (foxtails (Setaria spp.); 4.0 kg/ha): 40% | Crop Response, Rice CSM-3, 1 cm (rice, variety CSM-3; 0.25 kg/ha): 4 | Crop Response, Rice CSM-3, 2 cm (rice, variety CSM-3; 0.25 kg/ha): 1 | Crop Response, Rice CSM-3, T (rice, variety CSM-3; 0.25 kg/ha): 0 | Crop Response, Rice CSM-3, 1 cm (rice, variety CSM-3; 0.50 kg/ha): 5 | Crop Response, Rice CSM-3, 2 cm (rice, variety CSM-3; 0.50 kg/ha): 2 | Crop Response, Rice CSM-3, T (rice, variety CSM-3; 0.50 kg/ha): 0 | Crop Response, Rice CSM-3, 1 cm (rice, variety CSM-3; 1.0 kg/ha): 7 | Crop Response, Rice CSM-3, 2 cm (rice, variety CSM-3; 1.0 kg/ha): 4 | Crop Response, Rice CSM-3, T (rice, variety CSM-3; 1.0 kg/ha): 0 | Crop Response, Rice CSM-3, 1 cm (rice, variety CSM-3; 2.0 kg/ha): 10 | Crop Response, Rice CSM-3, 2 cm (rice, variety CSM-3; 2.0 kg/ha): 7 | Crop Response, Rice CSM-3, T (rice, variety CSM-3; 2.0 kg/ha): 1 | Crop Response, Rice Nato, 1 cm (rice, variety Nato; 0.25 kg/ha): 5 | Crop Response, Rice Nato, 2 cm (rice, variety Nato; 0.25 kg/ha): 0 | Crop Response, Rice Nato, T (rice, variety Nato; 0.25 kg/ha): 1 | Crop Response, Rice Nato, 1 cm (rice, variety Nato; 0.50 kg/ha): 8 | Crop Response, Rice Nato, 2 cm (rice, variety Nato; 0.50 kg/ha): 1 | Crop Response, Rice Nato, T (rice, variety Nato; 0.50 kg/ha): 1 | Crop Response, Rice Nato, 1 cm (rice, variety Nato; 1.0 kg/ha): 9 | Crop Response, Rice Nato, 2 cm (rice, variety Nato; 1.0 kg/ha): 4 | Crop Response, Rice Nato, T (rice, variety Nato; 1.0 kg/ha): 1 | Crop Response, Rice Nato, 1 cm (rice, variety Nato; 2.0 kg/ha): 9 | Crop Response, Rice Nato, 2 cm (rice, variety Nato; 2.0 kg/ha): 6 | Crop Response, Rice Nato, T (rice, variety Nato; 2.0 kg/ha): 2 | % Control, Barnyardgrass ([1]; 0.5 kg/ha): 0% | % Control, Barnyardgrass ([1]; 1.0 kg/ha): 20% | % Control, Barnyardgrass ([1]; 2.0 kg/ha): 40% | % Control, Barnyardgrass ([1]; 4.0 kg/ha): 50% | % Control, Crabgrass ([2]; 0.5 kg/ha): 0% | % Control, Crabgrass ([2]; 1.0 kg/ha): 20% | % Control, Crabgrass ([2]; 2.0 kg/ha): 40% | % Control, Crabgrass ([2]; 4.0 kg/ha): 60% | % Control, Velvetleaf ([3]; 0.25 kg/ha): 100% | % Control, Velvetleaf ([3]; 0.50 kg/ha): 100% | % Control, Velvetleaf ([3]; 1.0 kg/ha): 100% | % Control, Velvetleaf ([3]; 2.0 kg/ha): 100% | % Control, Lambsquarters ([4]; 0.5 kg/ha): 70% | % Control, Lambsquarters ([4]; 1.0 kg/ha): 80% | % Control, Lambsquarters ([4]; 2.0 kg/ha): 99% | % Control, Lambsquarters ([4]; 4.0 kg/ha): 99% | % Control, Crabgrass ([5]; 0.25 kg/ha): 99% | % Control, Crabgrass ([5]; 0.50 kg/ha): 100% | % Control, Crabgrass ([5]; 1.0 kg/ha): 100% | % Control, Crabgrass ([5]; 2.0 kg/ha): 100% | % Control, Foxtail (foxtail (Setaria spp.); 0.25 kg/ha): 99% | % Control, Foxtail (foxtail (Setaria spp.); 0.50 kg/ha): 100% | % Control, Foxtail (foxtail (Setaria spp.); 1.0 kg/ha): 100% | % Control, Foxtail (foxtail (Setaria spp.); 2.0 kg/ha): 100% | % Control, Pigweed ([6]; 0.5 kg/ha): 50% | % Control, Pigweed ([6]; 1.0 kg/ha): 70% | % Control, Pigweed ([6]; 2.0 kg/ha): 90% | % Control, Pigweed ([6]; 4.0 kg/ha): 99% | % Control, Smartweed ([7]; 0.5 kg/ha): 70% | % Control, Smartweed ([7]; 1.0 kg/ha): 80% | % Control, Smartweed ([7]; 2.0 kg/ha): 80% | % Control, Smartweed ([7]; 4.0 kg/ha): 99%
